Reference: ChEMBL document CHEMBL1146288, “Thiosialoside clusters using carbosilane dendrimer core scaffolds as a new class of influenza neuraminidase inhibitors” (Bioorg Med Chem Lett, 2007)

Key:
[1] = Inhibition of influenza A virus A/Memphis/1/71(H3N2)) sialidase; design: species or system Influenza A virus (A/Memphis/1/1971(H3N2))
[2] = Inhibition of influenza A virus A/PR/8/34(H1N1)) sialidase

Compound	IC50 [1]	IC50 [2]
CC(=O)N[C@@H]1[C@@H]([C@H](O)[C@H](O)CO)O[C@](SCCCCCOCCCSCCC[Si](CCCSCCCOCCCCCS[C@@]2(C(=O)O)C[C@@H](O)[C@H](NC(C)=O)[C@@H]([C@H](O)[C@H](O)CO)O2)(CCCSCCCOCCCCCS[C@@]2(C(=O)O)C[C@@H](O)[C@H](NC(C)=O)[C@@H]([C@H](O)[C@H](O)CO)O2)CCC[Si](C)(C)CCC[Si](CCCSCCCOCCCCCS[C@@]2(C(=O)O)C[C@@H](O)[C@H](NC(C)=O)[C@@H]([C@H](O)[C@H](O)CO)O2)(CCCSCCCOCCCCCS[C@@]2(C(=O)O)C[C@@H](O)[C@H](NC(C)=O)[C@@H]([C@H](O)[C@H](O)CO)O2)CCCSCCCOCCCCCS[C@@]2(C(=O)O)C[C@@H](O)[C@H](NC(C)=O)[C@@H]([C@H](O)[C@H](O)CO)O2)(C(=O)O)C[C@H]1O	1.25 mM	5 mM
CC(=O)N[C@@H]1[C@@H]([C@H](O)[C@H](O)CO)O[C@](SCCCCCOCCCSCCC[Si](CCCSCCCOCCCCCS[C@@]2(C(=O)O)C[C@@H](O)[C@H](NC(C)=O)[C@@H]([C@H](O)[C@H](O)CO)O2)(CCCSCCCOCCCCCS[C@@]2(C(=O)O)C[C@@H](O)[C@H](NC(C)=O)[C@@H]([C@H](O)[C@H](O)CO)O2)c2ccccc2)(C(=O)O)C[C@H]1O	5 mM	5 mM
CC(=O)N[C@@H]1[C@@H]([C@H](O)[C@H](O)CO)O[C@](SCCCCCOCCCSCCC[Si](CCCSCCCOCCCCCS[C@@]2(C(=O)O)C[C@@H](O)[C@H](NC(C)=O)[C@@H]([C@H](O)[C@H](O)CO)O2)(CCCSCCCOCCCCCS[C@@]2(C(=O)O)C[C@@H](O)[C@H](NC(C)=O)[C@@H]([C@H](O)[C@H](O)CO)O2)CCCSCCCOCCCCCS[C@@]2(C(=O)O)C[C@@H](O)[C@H](NC(C)=O)[C@@H]([C@H](O)[C@H](O)CO)O2)(C(=O)O)C[C@H]1O	5 mM	5 mM
